Patent publication US8906913B2, “Azabicyclohexanes” (Panacea Biotec Limited, priority 2009, dated 2014)
In brackets after ≈: the same amount, converted by molar mass.

Key:
Experiment in all cases: In-vitro antibacterial activity, broth microdilution MIC
Type in all cases: cell-based
[1] = test system: Enterococcus faecalis ATCC 29212 Vancomycin Sensitive; settings: ATCC29212, Table 7, E. faecalis vancomycin sensitive, broth microdilution, 35±2° C., 16-20 h, read-out: MIC ATCC 29212
Experimental: (§1) The in-vitro antibacterial activity of the compounds of the present invention (as described in Table 7) was determined by a broth microdilution following the guidelines prescribed by the Clinical and Laboratory Standards Institute (CLSI). This method is described in the CLSI Document M7-A7, Vol. 26, No. 2, “Methods for Dilution Antimicrobial Susceptibility Test for Bacteria that Grow Aerobically; Approved Standard-Seventh Edition”, which is incorporated herein by reference. Minimum Inhibitory Concentration (MIC) is defined as the minimum concentration of test compound which inhibits the growth of bacteria as visible or seen by the naked eye. This test can also be carried out by agar dilution method.
(§2) The compounds of the present invention were tested against a panel of standard microorganisms obtained from ATCC (American type culture collection). Linezolid was used as comparator in all the tests.
(§3) In the broth microdilution method, the compound was dissolved in dimethylsulfoxide and two fold serial dilutions were carried out in 96 well microtitre plates. The inoculum was prepared by adjusting the turbidity of actively growing broth culture and added to the wells to obtain a final bacterial count of ˜2-5×10^4 CFU/well. The microtitre plates were incubated at 35±2° C. for 16-20 h and then read visually.

[2] = test system: Staphylococcus aureus ATCC 29213 MSSA (Methicillin sensitive); settings: Table 7, S. aureus MSSA, broth microdilution, 35±2° C., 16-20 h, read-out: MIC ATCC 29213
Experimental: as §1, §2, §3

[3] = test system: Enterococcus faecium ATCC 700221 VRE (Vancomycin resistant E. faecium); settings: Table 7, broth microdilution, 35±2° C., 16-20 h, read-out: MIC ATTC 700221
Experimental: as §1, §2, §3

[4] = test system: Staphylococcus aureus ATCC 33591 MRSA (Methicillin resistant); settings: Table 7, S. aureus MRSA, broth microdilution, 35±2° C., 16-20 h, read-out: MIC ATCC 33591
Experimental: as §1, §2, §3

| SMILES | MIC [1] | MIC [2] | MIC [3] | MIC [4] |
| --- | --- | --- | --- | --- |
| COC(=O)NC[C@H]1CN(c2ccc(C34CC3CN(C(C)=O)C4)cc2)C(=O)O1 (some centres unmarked) | 2 µg/mL (≈ 5.36 µM) | 2 µg/mL (≈ 5.36 µM) | 1 µg/mL (≈ 2.68 µM) | 1 µg/mL (≈ 2.68 µM) |
| CC(=O)NC[C@H]1CN(c2ccc(C34CC3CN(C(=O)OC(C)C)C4)cc2)C(=O)O1 (some centres unmarked) | 2 µg/mL (≈ 4.98 µM) | 2 µg/mL (≈ 4.98 µM) | 1 µg/mL (≈ 2.49 µM) | 1 µg/mL (≈ 2.49 µM) |
| CC(=O)NC[C@H]1CN(c2ccc(C34CC3CN(C(=O)CO)C4)cc2)C(=O)O1 (some centres unmarked) | 0.5 µg/mL (≈ 1.34 µM) | 0.5 µg/mL (≈ 1.34 µM) | 0.5 µg/mL (≈ 1.34 µM) | 0.5 µg/mL (≈ 1.34 µM) |
| COC(=O)NC[C@H]1CN(c2ccc(C34CC3CN(C(=O)OC)C4)cc2)C(=O)O1 (some centres unmarked) | 1 µg/mL (≈ 2.57 µM) | 1 µg/mL (≈ 2.57 µM) | 1 µg/mL (≈ 2.57 µM) | 1 µg/mL (≈ 2.57 µM) |
| CC(=O)NC[C@H]1CN(c2ccc(C34CC3CN(C(=O)N(C)C)C4)cc2)C(=O)O1 (some centres unmarked) | 0.5 µg/mL (≈ 1.29 µM) | 4 µg/mL (≈ 10.4 µM) | 0.25 µg/mL (≈ 0.647 µM) | 1 µg/mL (≈ 2.59 µM) |
| CCOC(=O)OCC(=O)N1CC2CC2(c2ccc(N3C[C@H](CNC(C)=O)OC3=O)cc2)C1 (some centres unmarked) | 0.5 µg/mL (≈ 1.12 µM) | 2 µg/mL (≈ 4.49 µM) | 0.5 µg/mL (≈ 1.12 µM) | 1 µg/mL (≈ 2.24 µM) |
| COC(=O)N1CC2CC2(c2ccc(N3C[C@H](CNC(C)=O)OC3=O)cc2F)C1 (some centres unmarked) | 0.5 µg/mL (≈ 1.28 µM) | 1 µg/mL (≈ 2.55 µM) | 0.5 µg/mL (≈ 1.28 µM) | 0.5 µg/mL (≈ 1.28 µM) |
| COC(=O)N1CC2CC2(c2ccc(N3C[C@H](CNC(C)=O)OC3=O)cc2)C1 (some centres unmarked) | 2 µg/mL (≈ 5.36 µM) | 2 µg/mL (≈ 5.36 µM) | 1 µg/mL (≈ 2.68 µM) | 1 µg/mL (≈ 2.68 µM) |
| CC(=O)N1CC2CC2(c2ccc(N3C[C@H](Cn4ccnn4)OC3=O)cc2)C1 (some centres unmarked) | 2 µg/mL (≈ 5.44 µM) | 1 µg/mL (≈ 2.72 µM) | 1 µg/mL (≈ 2.72 µM) | 2 µg/mL (≈ 5.44 µM) |
| COC(=O)N1CC2CC2(c2ccc(N3C[C@H](Cn4ccnn4)OC3=O)cc2)C1 (some centres unmarked) | 2 µg/mL (≈ 5.22 µM) | 1 µg/mL (≈ 2.61 µM) | 1 µg/mL (≈ 2.61 µM) | 0.5 µg/mL (≈ 1.3 µM) |
| CC(=O)NC[C@H]1CN(c2ccc(C34CC3CN(C(=O)C(F)(F)F)C4)cc2)C(=O)O1 (some centres unmarked) | 2 µg/mL (≈ 4.86 µM) | 2 µg/mL (≈ 4.86 µM) | 1 µg/mL (≈ 2.43 µM) | 2 µg/mL (≈ 4.86 µM) |
| CC(=O)NCC(=O)N1CC2CC2(c2ccc(N3C[C@H](CNC(C)=O)OC3=O)cc2)C1 (some centres unmarked) | 2 µg/mL (≈ 4.83 µM) | 4 µg/mL (≈ 9.65 µM) | 4 µg/mL (≈ 9.65 µM) | 4 µg/mL (≈ 9.65 µM) |
| COC(=O)N1C[C@@H]2C[C@]2(c2ccc(N3C[C@H](CNC(C)=O)OC3=O)cc2)C1 | 1 µg/mL (≈ 2.68 µM) | 1 µg/mL (≈ 2.68 µM) | 0.5 µg/mL (≈ 1.34 µM) | 0.5 µg/mL (≈ 1.34 µM) |
| COC(=O)N1C[C@H]2C[C@@]2(c2ccc(N3C[C@H](CNC(C)=O)OC3=O)cc2)C1 | 1 µg/mL (≈ 2.68 µM) | 2 µg/mL (≈ 5.36 µM) | 1 µg/mL (≈ 2.68 µM) | 1 µg/mL (≈ 2.68 µM) |
| CC(=O)NC[C@H]1CN(c2ccc(C34CC3CN(C(C)=O)C4)c(F)c2)C(=O)O1 (some centres unmarked) | 1 µg/mL (≈ 2.66 µM) | 1 µg/mL (≈ 2.66 µM) | 0.5 µg/mL (≈ 1.33 µM) | 0.5 µg/mL (≈ 1.33 µM) |

Now from value to compound:

| MIC [1] | MIC [2] | MIC [3] | MIC [4] | SMILES |
| --- | --- | --- | --- | --- |
| 2 µg/mL (≈ 4.76 µM) | 2 µg/mL (≈ 4.76 µM) | 2 µg/mL (≈ 4.76 µM) | 1 µg/mL (≈ 2.38 µM) | CC(=O)NC[C@H]1CN(c2ccc(C34CC3CN(C(=O)c3cccnc3)C4)cc2)C(=O)O1 (some centres unmarked) |
| 1 µg/mL (≈ 2.17 µM) | 2 µg/mL (≈ 4.34 µM) | 1 µg/mL (≈ 2.17 µM) | 2 µg/mL (≈ 4.34 µM) | CC(=O)NC[C@H]1CN(c2ccc(C34CC3CN(C(=O)c3cn5cccnc5n3)C4)cc2)C(=O)O1 (some centres unmarked) |
| 2 µg/mL (≈ 5.08 µM) | 2 µg/mL (≈ 5.08 µM) | 1 µg/mL (≈ 2.54 µM) | 1 µg/mL (≈ 2.54 µM) | CC(=O)NC[C@H]1CN(c2ccc(C34CC3CN(S(C)(=O)=O)C4)cc2)C(=O)O1 (some centres unmarked) |
| 1 µg/mL (≈ 2.23 µM) | 1 µg/mL (≈ 2.23 µM) | 0.5 µg/mL (≈ 1.12 µM) | 1 µg/mL (≈ 2.23 µM) | CC(=O)NC[C@H]1CN(c2ccc(C34CC3CN(C(=O)CCc3ccccc3)C4)cc2)C(=O)O1 (some centres unmarked) |
| 0.5 µg/mL (≈ 1.27 µM) | 1 µg/mL (≈ 2.55 µM) | 1 µg/mL (≈ 2.55 µM) | 0.5 µg/mL (≈ 1.27 µM) | CC(=O)NC[C@H]1CN(c2ccc(C34CC3CN(c3ccccn3)C4)cc2)C(=O)O1 (some centres unmarked) |
| 1 µg/mL (≈ 2.94 µM) | 0.5 µg/mL (≈ 1.47 µM) | 0.5 µg/mL (≈ 1.47 µM) | 0.5 µg/mL (≈ 1.47 µM) | CC(=O)NC[C@H]1CN(c2ccc(C34CC3CN(C#N)C4)cc2)C(=O)O1 (some centres unmarked) |
| 8 µg/mL (≈ 19.7 µM) | 4 µg/mL (≈ 9.84 µM) | 2 µg/mL (≈ 4.92 µM) | 4 µg/mL (≈ 9.84 µM) | CC(=O)NC[C@H]1CN(c2ccc(C34CC3CN(Cc3cccnc3)C4)cc2)C(=O)O1 (some centres unmarked) |
| 1 µg/mL (≈ 2.29 µM) | 1 µg/mL (≈ 2.29 µM) | 0.5 µg/mL (≈ 1.14 µM) | 1 µg/mL (≈ 2.29 µM) | CC(=O)NC[C@H]1CN(c2ccc(C34CC3CN(C(=O)C(=O)c3ccco3)C4)cc2)C(=O)O1 (some centres unmarked) |
